Assay results from PubChem BioAssay AID488998 (The Scripps Research Institute Molecular Screening Center, 2010).
Activity calls are given as the source filed them.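 Rule for the calls: active = IC50 at or below 10 µM; inactive = IC50 above 10 µM.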

Target: Lytic switch protein BZLF1 (Epstein-Barr virus (strain B95-8)) (UniProt P03206)
Assay: Zta-DNA binding inhibition potency, late-stage follow-up, counter-screen for EBNA-1 inhibitor project, biochemical, fluorescence polarization, dose response, round 0 (AID 488998)
Conditions: purified Zta–Cy5 ZRE DNA binding

Sequence of Lytic switch protein BZLF1 (Epstein-Barr virus (strain B95-8)) (P03206 whole entry, looked up): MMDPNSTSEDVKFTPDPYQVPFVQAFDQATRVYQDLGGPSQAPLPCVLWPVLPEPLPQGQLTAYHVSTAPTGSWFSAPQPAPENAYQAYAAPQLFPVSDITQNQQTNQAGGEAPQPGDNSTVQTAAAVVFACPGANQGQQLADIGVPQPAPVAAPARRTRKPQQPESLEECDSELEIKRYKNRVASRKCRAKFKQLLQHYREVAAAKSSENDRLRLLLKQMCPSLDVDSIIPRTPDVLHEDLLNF

Row | IC50 | SMILES
1 | > 111 µM (inactive) | Cc1ccc(C(=O)Nc2nc3ccc(Br)cc3s2)cc1C
2 | > 111 µM (inactive) | Cc1cccc(C(=O)Nc2nc3ccc(S(C)(=O)=O)cc3s2)c1
3 | > 111 µM (inactive) | COc1ccccc1C(=O)Nc1nc2ccc(S(C)(=O)=O)cc2s1
4 | > 111 µM (inactive) | COc1cccc2sc(NC(=O)c3ccc(C)c(C)c3)nc12
5 | > 111 µM (inactive) | Cc1ccc(-n2nnnc2SCC(=O)c2cc(C)n(CC3CCCO3)c2C)cc1 (stereo not given)
6 | > 111 µM (inactive) | CS(=O)(=O)c1ccc2nc(NC(=O)c3ccc(Cl)cc3)sc2c1
7 | > 111 µM (inactive) | Cc1cc(C(=O)CSc2nnnn2-c2ccccc2)c(C)n1C
8 | > 111 µM (inactive) | Cc1cc(C(=O)CSc2nnnn2-c2ccccc2)c(C)n1Cc1cccs1
9 | > 111 µM (inactive) | Cc1ccccc1C(=O)Nc1nc2ccc(S(C)(=O)=O)cc2s1
10 | > 111 µM (inactive) | Cc1ccc(C(=O)Nc2nc3ccc(S(C)(=O)=O)cc3s2)cc1
11 | > 111 µM (inactive) | CS(=O)(=O)c1ccc2nc(NC(=O)c3ccccc3Cl)sc2c1
12 | > 111 µM (inactive) | CS(=O)(=O)c1ccc2nc(NC(=O)c3cccc(F)c3)sc2c1
13 | > 111 µM (inactive) | CCn1c(C)cc(C(=O)CSc2nnnn2-c2ccccc2)c1C
14 | > 111 µM (inactive) | Cc1cc(C(=O)CSc2nnnn2-c2cccc(F)c2)c(C)n1CC1CCCO1 (stereo not given)
15 | > 111 µM (inactive) | Cc1ccc(C(=O)Nc2nc3cc(F)ccc3s2)cc1C
16 | > 111 µM (inactive) | Cc1cc(C(=O)CSc2nnnn2-c2ccc(Cl)cc2)c(C)n1CC1CCCO1 (stereo not given)
17 | > 111 µM (inactive) | COCCn1c(C)cc(C(=O)CSc2nnnn2-c2ccccc2)c1C
18 | > 111 µM (inactive) | COc1ccc2nc(NC(=O)c3ccc(C)c(C)c3)sc2c1
19 | > 111 µM (inactive) | CS(=O)(=O)c1ccc2nc(NC(=O)c3cccc(Cl)c3)sc2c1
20 | > 111 µM (inactive) | CS(=O)(=O)c1ccc2nc(NC(=O)c3ccccc3F)sc2c1
21 | > 111 µM (inactive) | Cc1cc(C(=O)CSc2nnnn2C2CC2)c(C)n1CC1CCCO1 (stereo not given)
22 | > 111 µM (inactive) | COc1ccc(-n2nnnc2SCC(=O)c2cc(C)n(CC3CCCO3)c2C)cc1 (stereo not given)
23 | > 111 µM (inactive) | Cc1cccc(-n2nnnc2SCC(=O)c2cc(C)n(CC3CCCO3)c2C)c1 (stereo not given)
24 | > 111 µM (inactive) | COc1ccc(C(=O)Nc2nc3ccc(S(C)(=O)=O)cc3s2)cc1
25 | > 111 µM (inactive) | Cc1cc(C(=O)CSc2nnnn2C)c(C)n1CC1CCCO1 (stereo not given)
26 | > 111 µM (inactive) | Cc1ccc(C(=O)Nc2nc3cc(Br)ccc3s2)cc1C
27 | > 111 µM (inactive) | Cc1ccccc1-n1nnnc1SCC(=O)c1cc(C)n(CC2CCCO2)c1C (stereo not given)
28 | > 111 µM (inactive) | COc1cccc(C(=O)Nc2nc3ccc(S(C)(=O)=O)cc3s2)c1
29 | > 111 µM (inactive) | O=C(CSc1nnnn1-c1ccccc1)c1ccn(CC2CCCO2)c1 (stereo not given)
30 | > 111 µM (inactive) | COc1ccc2sc(NC(=O)c3ccc(C)c(C)c3)nc2c1
